Measured values reported in ChEMBL document CHEMBL5042512 (Eur J Med Chem, 2022).
Calls of active or inactive are those of the source. The calls are words filed in the database; no cut-off is given here.

How the values were obtained:
KYSE-30 [1] = experiment: Induction of mitochondrial membrane potential loss in human KYSE-30 cells assessed as mitochondrial depolarization at 80 to 100 nM measured after 48 hrs by JCI staining based flow cytometry; assay type: functional, cell-based; conditions: dose 80-100 nM
KYSE-450 [2] = experiment: Induction of mitochondrial membrane potential loss in human KYSE-450 cells assessed as downregulation of Bcl-2 protein at 80 to 100 nM measured after 48 hrs by western blot analysis; assay type: functional, cell-based; conditions: dose 80-100 nM
KYSE-30 [3] = experiment: Down regulation of CDC25C protein expression in human KYSE-30 cells at 80 to 100 nM for 48 hrs by western blot analysis; assay type: functional, cell-based; conditions: dose 80-100 nM
KYSE-450 [4] = experiment: Induction of apoptosis in human KYSE-450 cells assessed as caspase-3 cleavage at 80 to 100 nM measured after 48 hrs by western blot analysis; assay type: functional, cell-based; conditions: dose 80-100 nM
KYSE-450 [5] = experiment: Induction of mitochondrial membrane potential loss in human KYSE-450 cells assessed as Mcl-1 expression at 80 to 100 nM measured after 48 hrs by western blot analysis; assay type: functional, cell-based; conditions: dose 80-100 nM
KYSE-450 [6] = experiment: Antiproliferative activity against human KYSE-450 cells assessed as cell viability measured up to 48 hrs by CCK8 assay; assay type: functional, cell-based; conditions: time hrs <=48, TDE = time-dependent effect
KYSE-450 [7] = experiment: Antiproliferative activity against human KYSE-450 cells assessed as cell growth inhibition measured after 48 hrs by CCK8 assay; assay type: functional, cell-based; conditions: KYSE-450, 48 h
KYSE-450 [8] = experiment: Induction of apoptosis in human KYSE-450 cells assessed as apoptotic cells at 100 nM measured after 48 hrs by annexin-V-FITC and PI staining based flow cytometry analysis (reference value: 8.1667 %); assay type: functional
KYSE-30 [9] = experiment: Down regulation of p-wee1 protein expression in human KYSE-30 cells at 80 to 100 nM for 48 hrs by western blot analysis; assay type: functional, cell-based; conditions: dose 80-100 nM
MGC-803 = experiment: Antiproliferative activity against human MGC-803 cells assessed as cell growth inhibition measured after 48 hrs by CCK8 assay; assay type: functional, cell-based; conditions: MGC-803, 48 h
KYSE-30 [10] = experiment: Induction of mitochondrial membrane potential loss in human KYSE-30 cells assessed as Mcl-1 expression at 80 to 100 nM measured after 48 hrs by western blot analysis; assay type: functional, cell-based; conditions: dose 80-100 nM
KYSE-450 [11] = experiment: Induction of cell cycle arrest in human KYSE-450 cells assessed as accumulation at G2/M phase at 100 nM measured after 48 hrs by flow cytometry analysis (reference value: 7.04333 %); assay type: functional
KYSE-30 [12] = experiment: Induction of cell cycle arrest in human KYSE-30 cells assessed as accumulation at G2/M phase at 100 nM measured after 48 hrs by flow cytometry analysis (reference value: 19.38 %); assay type: functional
KYSE-30 [13] = experiment: Induction of mitochondrial membrane potential loss in human KYSE-30 cells assessed as Bcl-xL expression at 80 to 100 nM measured after 48 hrs by western blot analysis; assay type: functional, cell-based; conditions: dose 80-100 nM
KYSE-30 [14] = experiment: Induction of mitochondrial membrane potential loss in human KYSE-30 cells assessed as decrease in XIAP level at 80 to 100 nM measured after 48 hrs by western blot analysis; assay type: functional, cell-based; conditions: dose 80-100 nM
KYSE-30 [15] = experiment: Induction of mitochondrial membrane potential loss in human KYSE-30 cells assessed as downregulation of Bcl-2 protein at 80 to 100 nM measured after 48 hrs by western blot analysis; assay type: functional, cell-based; conditions: dose 80-100 nM
KYSE-450 [16] = experiment: Antiproliferative activity against human KYSE-450 cells assessed as cell viability measured after 48 hrs by CCK8 assay; assay type: functional, cell-based; conditions: KYSE-450, 48 h
KYSE-30 [17] = experiment: Antiproliferative activity against human KYSE-30 cells assessed as inhibition of colony formation at 40 to 60 nM for 7 days by crystal violet staining based analysis; assay type: functional, cell-based; conditions: dose 40-60 nM, time 7.0 day
Tubulin (Homo sapiens) [18] = molecular target: T1, Tubulin (Homo sapiens) (UniProt P68371+Q9H4B7+P0DPH7+P68366+Q13509+Q71U36+P04350+Q3ZCM7+P07437+P68363+Q9BQE3+Q6PEY2+Q13885+Q9BVA1+Q9BUF5); experiment: Inhibition of tubulin polymerization in human KYSE-30 cells assessed as weakening of beta tubulin at 100 to 300 nM for 2 hrs by EBI alkylate competition assay; assay type: cell-based; conditions: dose 100-300 nM
KYSE-450 [19] = experiment: Induction of mitochondrial membrane potential loss in human KYSE-450 cells assessed as upregulation of NOXA protein at 80 to 100 nM measured after 48 hrs by western blot analysis; assay type: functional, cell-based; conditions: dose 80-100 nM
KYSE-30 [20] = experiment: Induction of apoptosis in human KYSE-30 cells assessed as apoptotic cells at 100 nM measured after 48 hrs by annexin-V-FITC and PI staining based flow cytometry analysis (reference value: 8.1667 %); assay type: functional
KYSE-30 [21] = experiment: Induction of apoptosis in human KYSE-30 cells assessed as apoptotic cells at 80 nM measured after 48 hrs by annexin-V-FITC and PI staining based flow cytometry analysis (reference value: 8.1667 %); assay type: functional
KYSE-30 [22] = experiment: Induction of mitochondrial membrane potential loss in human KYSE-30 cells assessed as upregulation of Bax protein at 80 to 100 nM measured after 48 hrs by western blot analysis; assay type: functional, cell-based; conditions: dose 80-100 nM
KYSE-450 [23] = experiment: Induction of apoptosis in human KYSE-450 cells assessed as PARP cleavage at 80 to 100 nM measured after 48 hrs by western blot analysis; assay type: functional, cell-based; conditions: dose 80-100 nM
KYSE-30 [24] = experiment: Antiproliferative activity against human KYSE-30 cells assessed as cell viability measured after 48 hrs by CCK8 assay; assay type: functional, cell-based; conditions: KYSE-30, 48 h
KYSE-30 [25] = experiment: Induction of apoptosis in human KYSE-30 cells assessed as caspase-3 cleavage at 80 to 100 nM measured after 48 hrs by western blot analysis; assay type: functional, cell-based; conditions: dose 80-100 nM
KYSE-30 [26] = experiment: Induction of apoptosis in human KYSE-30 cells assessed as PARP cleavage at 80 to 100 nM measured after 48 hrs by western blot analysis; assay type: functional, cell-based; conditions: dose 80-100 nM
KYSE-450 [27] = experiment: Induction of mitochondrial membrane potential loss in human KYSE-450 cells assessed as upregulation of Bax protein at 80 to 100 nM measured after 48 hrs by western blot analysis; assay type: functional, cell-based; conditions: dose 80-100 nM
KYSE-450 [28] = experiment: Induction of mitochondrial membrane potential loss in human KYSE-450 cells assessed as Bcl-xL expression at 80 to 100 nM measured after 48 hrs by western blot analysis; assay type: functional, cell-based; conditions: dose 80-100 nM
KYSE-450 [29] = experiment: Induction of mitochondrial membrane potential loss in human KYSE-450 cells assessed as Bak expression at 80 to 100 nM measured after 48 hrs by western blot analysis; assay type: functional, cell-based; conditions: dose 80-100 nM
Tubulin (Homo sapiens) [30] = molecular target: T1, Tubulin (Homo sapiens); experiment: Inhibition of tubulin polymerization in human KYSE-30 cells assessed as microtubule assembly at 0.1 uM measured after 48 hrs by immunofluorescence assay; assay type: cell-based
KYSE-30 [31] = experiment: Induction of mitochondrial membrane potential loss in human KYSE-30 cells assessed as upregulation of NOXA protein at 80 to 100 nM measured after 48 hrs by western blot analysis; assay type: functional, cell-based; conditions: dose 80-100 nM
Sus scrofa = organism: Sus scrofa; experiment: Inhibition of pig brain tubulin polymerization at 3 uM by spectrophotometry
HCT-116 = experiment: Antiproliferative activity against human HCT-116 cells assessed as cell growth inhibition measured after 48 hrs by CCK8 assay; assay type: functional, cell-based; conditions: HCT-116, 48 h
KYSE-450 [32] = experiment: Down regulation of p-wee1 protein expression in human KYSE-450 cells at 80 to 100 nM for 48 hrs by western blot analysis; assay type: functional, cell-based; conditions: dose 80-100 nM
KYSE-30 [33] = experiment: Induction of mitochondrial membrane potential loss in human KYSE-30 cells assessed as Bak expression at 80 to 100 nM measured after 48 hrs by western blot analysis; assay type: functional, cell-based; conditions: dose 80-100 nM

**Q.** `COc1ccc(CN(C(=O)CSC(=S)N2CCN(C(=O)OC(C)(C)C)CC2)c2cc(OC)c(OC)c(OC)c2)cc1O` was tested. Which Activity (KYSE-30 [1]) did it give?
**A.** Active

**Q.** And the Activity (KYSE-450 [2])?
**A.** Dose-Dependent Effect

**Q.** What about the Activity (KYSE-30 [3]) of the same compound?
**A.** Dose-Dependent Effect

**Q.** And the Activity (KYSE-450 [4])?
**A.** Active

**Q.** What about the Activity (KYSE-450 [5]) of the same compound?
**A.** inactive

**Q.** What about the inhibition (KYSE-450 [6]) of the same compound?
**A.** Tde

**Q.** And the IC50 (KYSE-450 [7])?
**A.** 0.076 µM

**Q.** What about the Activity (KYSE-450 [8]) of the same compound?
**A.** 57.3667%

**Q.** What about the Activity (KYSE-30 [9]) of the same compound?
**A.** Dose-Dependent Effect

**Q.** And the IC50 (MGC-803)?
**A.** 0.082 µM

**Q.** And the Activity (KYSE-30 [10])?
**A.** inactive

**Q.** What about the Activity (KYSE-450 [11]) of the same compound?
**A.** 80.8933%

**Q.** And the Activity (KYSE-30 [12])?
**A.** 76.9767%

**Q.** What about the Activity (KYSE-30 [13]) of the same compound?
**A.** inactive

**Q.** And the Activity (KYSE-30 [14])?
**A.** Dose-Dependent Effect

**Q.** What about the Activity (KYSE-30 [15]) of the same compound?
**A.** Dose-Dependent Effect

**Q.** And the IC50 (KYSE-450 [16])?
**A.** 0.076 µM

**Q.** And the inhibition (KYSE-30 [17])?
**A.** Active

**Q.** What about the inhibition (Tubulin (Homo sapiens) [18]) of the same compound?
**A.** Active

**Q.** And the Activity (KYSE-450 [19])?
**A.** Dose-Dependent Effect

**Q.** And the Activity (KYSE-30 [20])?
**A.** 38.633%

**Q.** What about the Activity (KYSE-30 [21]) of the same compound?
**A.** 23.8%

**Q.** And the Activity (KYSE-30 [22])?
**A.** Dose-Dependent Effect

**Q.** And the Activity (KYSE-450 [23])?
**A.** Active

**Q.** And the IC50 (KYSE-30 [24])?
**A.** 0.069 µM

**Q.** And the Activity (KYSE-30 [25])?
**A.** Active

**Q.** And the Activity (KYSE-30 [26])?
**A.** Active

**Q.** What about the Activity (KYSE-450 [27]) of the same compound?
**A.** Dose-Dependent Effect

**Q.** What about the Activity (KYSE-450 [28]) of the same compound?
**A.** inactive

**Q.** And the Activity (KYSE-450 [29])?
**A.** inactive

**Q.** And the inhibition (Tubulin (Homo sapiens) [30])?
**A.** Active

**Q.** What about the Activity (KYSE-30 [31]) of the same compound?
**A.** Dose-Dependent Effect

**Q.** What about the inhibition (Sus scrofa) of the same compound?
**A.** Active

**Q.** What about the IC50 (HCT-116) of the same compound?
**A.** 0.128 µM

**Q.** And the Activity (KYSE-450 [32])?
**A.** Dose-Dependent Effect

**Q.** What about the Activity (KYSE-30 [33]) of the same compound?
**A.** inactive
